# Results published in patent publication US6344476B1, “Inhibition of p38 kinase activity by aryl ureas” (Bayer Corporation, priority 1997, dated 2002).
row,Compound,melting point
1,"Cc1ccc(NC(=O)Nc2cc(C(C)(C)C)sc2CNC(=O)CNC(=O)OC(C)(C)C)cc1 [Example 52, N-(2-(N-(N-carbo-tert-butoxyglycyl)aminomethyl)-5-tert-butyl-3-thienyl)-N′-(4-methylphenyl)urea]",174 to 176 °C
2,"CNC(=O)c1sc(C(C)(C)C)cc1NC(=O)Nc1ccc(F)cc1 [Example 25, N-(2-methylcarbamoyl-5-tert-butyl-3-thienyl)-N′-(4-fluorophenyl)urea]",203 to 204 °C
3,"COC(=O)c1[nH]c(C(C)(C)C)cc1NC(=O)Nc1ccccc1 [Example 37, N-(2-Carbomethoxy-5-tert-butyl-3-pyrrolyl)-N′-(phenyl)urea]",262 to 263 °C (dec.)
4,"COC(=O)c1cc(C(C)C)sc1NC(=O)Nc1ccc(C)cc1 [Example 42, N-(3-carbomethoxy-5-isopropyl-2-thienyl)-N′-(4-methylphenyl)urea]",49 to 51 °C
5,"COC(=O)c1oc(C(C)(C)C)cc1NC(=O)Nc1cccc(Cl)c1Cl [Example 34, N-(2-Carbomethoxy-5-tert-butyl-3-furyl)-N′-(2,3-dichlorophenyl)urea]",195 to 197 °C
6,"COC(=O)c1sc(C(C)(C)C)cc1NC(=O)Nc1ccc(C)s1 [Example 14, N-(2-Carbomethoxy-5-tert-butyl-3-thienyl)-N′-(5-methyl-2-thienyl)urea]",118 to 120 °C
7,"CCc1ccc(NC(=O)Nc2cc(C(C)(C)C)sc2C(=O)NC)cc1 [Example 23, N-(2-Methylcarbamoyl-5-tert-butyl-3-thienyl)-N′-(4ethylphenyl)urea]",101 to 104 °C
8,"COC(=O)c1sc(C(C)(C)C)cc1NC(=O)Nc1ccc(F)cc1 [Example 54, N-(2-carbomethoxy-5-tert-butyl-3-thienyl)-N′-(4-fluorophenyl)urea]",160 to 162 °C
9,"CNC(=O)c1sc(C(C)(C)C)cc1NC(=O)Nc1ccc(C)cc1C [Example 27, N-(2-Methylcarbamoyl-5-tert-butyl-3-thienyl)-N′-(2,4-dimethylphenyl)urea]",195 to 196 °C
10,"COC(=O)c1oc(C(C)(C)C)cc1NC(=O)Nc1ccc(C)cc1 [Example 32, N-(2-carbomethoxy-5-tert-butyl-3-furyl)-N′-(4-methylphenyl)urea]",78 to 79 °C
11,"CNC(=O)c1oc(C(C)(C)C)cc1NC(=O)Nc1ccc(F)cc1 [Example 36, N-(2-methylcarbamoyl-5-tert-butyl-3-furyl)-N′-(4-fluorophenyl)urea]",109 to 111 °C
12,"COC(=O)c1sc(C(C)C)cc1NC(=O)Nc1ccccc1 [Example 1, N-(2-carbomethoxy-5-isopropyl-3-thienyl)-N′-(phenyl)urea]",108 to 110 °C
13,"CNC(=O)c1[nH]c(C(C)(C)C)cc1NC(=O)Nc1ccc(C)cc1 [Example 113, N-(2-methylcarbamoyl-5-tert-butyl-3-pyrrolyl)-N′-(4-methylphenyl)urea]",164 to 166 °C
14,"CNC(=O)c1sc(C(C)(C)C)cc1NC(=O)Nc1ccc(F)c(Cl)c1 [Example 30, N-(2-Methylcarbamoyl-5-tert-butyl-3-thienyl)-N′-(3chloro-4-fluorophenyl)urea]",203 to 204 °C
15,"COC(=O)c1c(NC(=O)Nc2ccc(C)cc2)cc(C(C)(C)C)n1C [Example 40, N-(N-methyl-2-carbomethoxy-5-tert-butyl-3-pyrrolyl)-N′-(4-methylphenyl)urea]",171 to 172 °C
16,"CNC(=O)c1sc(C(C)(C)C)cc1NC(=O)Nc1ccc(C(C)C)cc1 [Example 24, N-(2-Methylcarbamoyl-5-tert-butyl-3-thienyl)-N′-(4-isopropylphenyl)urea]",113 to 120 °C
17,"COC(=O)c1sc(C(C)(C)C)cc1NC(=O)Nc1cccc(C)c1 [Example 9, N-(2-Carbomethoxy-5-tert-butyl-3-thienyl)-N′-(3-methylphenyl)urea]",70 to 72 °C
18,"COC(=O)c1cc(C(C)(C)C)sc1NC(=O)Nc1ccc(C)cc1 [Example 44, N-(3-carbomethoxy-5-tert-butyl-2-thienyl)-N′-(4-methylphenyl)urea]",109 to 111 °C
19,"Cc1ccc(NC(=O)Nc2cc(C(C)(C)C)sc2CNC(=O)CN)cc1 [Example 51, N-(2-(N-glycylaminomethyl)-5-tert-butyl-3-thienyl)-N′-(4-methylphenyl)urea]",93 to 96 °C
20,"COC(=O)c1cc(C(C)(C)C)sc1NC(=O)Nc1ccccc1 [Example 43, N-(3-Carbomethoxy-5-tert-butyl-2-thienyl)-N′-(phenyl)urea]",80 to 82 °C
21,"CNC(=O)c1sc(C(C)(C)C)cc1NC(=O)Nc1ccc(C)c(F)c1 [Example 29, N-(2-Methylcarbamoyl-5-tert-butyl-3-thienyl)-N′-(3-fluoro4-methylphenyl)urea]",182 to 183 °C
22,"COC(=O)c1[nH]c(C(C)(C)C)cc1NC(=O)Nc1ccc(C)cc1 [Example 38, N-(2carbomethoxy-5-tert-butyl-3-pyrrolyl)-N′-(4-methyl-phenyl)urea]",257 to 258 °C
23,"CC(=O)NCc1sc(C(C)(C)C)cc1NC(=O)Nc1ccc(C)cc1 [Example 50, N-(2-(N-Acetylaminomethyl)-5-tert-butyl-3-thienyl)-N′-(4-methylphenyl)urea]",203 to 205 °C
24,"CNC(=O)c1sc(C(C)(C)C)cc1NC(=O)Nc1ccc(C)cc1 [Example 22, N-(2-methylcarbamoyl-5-tert-butyl-3-thienyl)-N′-(4-methylphenyl)urea]",202 to 204 °C
25,"CNC(=O)c1sc(C(C)(C)C)cc1NC(=O)Nc1ccc(C)c(Cl)c1 [Example 28, N-(2-Methylcarbamoyl-5-tert-butyl-3-thienyl)-N′-(3-chloro-4-methylphenyl)urea]",178 to 179 °C
26,"COC(=O)c1cc(C(C)C)sc1NC(=O)Nc1ccccc1 [Example 41, N-(3-Carbomethoxy-5-isopropyl-2-thienyl)-N′-(phenyl)urea]",64 to 65 °C
